This note sets out measurements from patent US9320276B2, “N-hetarylmethyl pyrazolylcarboxamides” (BAYER INTELLECTUAL PROPERTY GMBH, priority 2010, dated 2016).

Structures are written as SMILES.

The data set can be described thus: logP by HPLC on reversed-phase column (EEC Directive 79/831 Annex V.A8). The class given is physicochemical. The settings on record: HPLC on reversed-phase column (C 18), 40° C., 0.1% aqueous formic acid and acetonitrile, linear gradient 10% to 90% acetonitrile. The method, then: In table 1, the logP values were determined in accordance with EEC Directive 79/831 Annex V.A8 by HPLC (High Performance Liquid Chromatography) on a reversed-phase column (C 18), using the method described below: Temperature: 40° C.; Mobile phases: 0.1% aqueous formic acid and acetonitrile; linear gradient from 10% acetonitrile to 90% acetonitrile. Calibration was carried out using unbranched alkan-2-ones (comprising 3 to 16 carbon atoms) with known logP values (determination of the logP values by the retention times using linear interpolation between two successive alkanones). lambda-max-values were determined using UV-spectra from 200 nm to 400 nm and the peak values of the chromatographic signals.
As for `Cc1ccsc1CN(C(=O)c1c(C(F)F)nn(C)c1F)C1CCCC1` [Example 38], the log partition coefficient (logP) turned out to be 3.46. The result for `Cn1nc(C(F)F)c(C(=O)N(Cc2ccc(Cl)nc2)C2CC2)c1Cl` [Example 66] reads 2.39; that for `Cn1nc(C(F)F)c(C(=O)N(Cc2cnc(Cl)cc2Cl)C2CC2)c1Cl` [Example 119], 2.90; that for `C=CCN(Cc1csc(C)n1)C(=O)c1c(C(F)F)nn(C)c1F` [Example 44], 2.07. The result for `Cn1nc(C(F)F)c(C(=O)NC2(c3cc4ccccc4o3)CCCC2)c1Cl` [Example 74] reads 3.70. Under `Cn1nc(C(F)F)c(C(=O)N(Cc2ccc(Cl)nc2)C2CCCC2)c1F` [Example 57] stands 2.80; under `Cn1nc(C(F)F)c(C(=O)N(Cc2ccc(Cl)nc2)C2CCCC2)c1Cl` [Example 68], 2.94. For the compound `CN(Cc1cccnc1Cl)C(=O)c1c(C(F)F)nn(C)c1F` [Example 52], the logP came to 1.72. The result for `CN(Cc1sc2ccccc2c1Cl)C(=O)c1c(C(F)F)nn(C)c1Cl` [Example 141] reads 3.63; that for `CN(Cc1cscc1Br)C(=O)c1c(C(F)F)nn(C)c1Cl` [Example 134], 2.70; that for `CN(Cc1ccc2nsnc2c1)C(=O)c1c(C(F)F)nn(C)c1Cl` [Example 99], 2.32. The compound `Cc1onc(-c2ccccc2)c1CN(C)C(=O)c1c(C(F)F)nn(C)c1F` [Example 130] registered a logP of 2.44. `CCN(Cc1nonc1C)C(=O)c1c(C(F)F)nn(C)c1Cl` [Example 27] displayed a logP of 2.20. Regarding `Cc1ccsc1CN(C)C(=O)c1c(C(F)F)nn(C)c1Cl` [Example 41], the logP turned out to be 2.58.

The compound `CCN(Cc1cn(CC)nc1C)C(=O)c1c(C(F)F)nn(C)c1F` [Example 45] returned a logP of 1.69. The result for `Cn1nc(C(F)F)c(C(=O)NCc2ccco2)c1F` [Example 10] reads 1.66; that for `CCN(Cc1ccc(Cl)nc1)C(=O)c1c(C(F)F)nn(C)c1F` [Example 61], 2.10; that for `CN(Cc1cc(-c2ccc(Cl)cc2)no1)C(=O)c1c(C(F)F)nn(C)c1F` [Example 152], 3.04. The result for `Cn1nc(C(F)F)c(C(=O)NCc2csc3ccccc23)c1Cl` [Example 87] reads 2.90. Under `CN(Cc1ccc(Cl)nc1)C(=O)c1c(C(F)F)nn(C)c1Cl` [Example 62] stands 1.98. The compound `CSc1ncc(C(C(C)C)N(C)C(=O)c2c(C(F)F)nn(C)c2Cl)c(C(F)(F)F)n1` (centres unmarked) [Example 158] returned a logP of 3.59.

As to `CCN(Cc1cnc(Cl)s1)C(=O)c1c(C(F)F)nn(C)c1Cl` [Example 77], the logP was 2.35. Compound `CN(Cc1cncc(Cl)c1)C(=O)c1c(C(F)F)nn(C)c1F` [Example 56] yielded a logP of 1.76. Under `CN(Cc1cncc(Cl)c1)C(=O)c1c(C(F)F)nn(C)c1Cl` [Example 55] stands 1.90; under `CN(Cc1nc(-c2ccccc2)no1)C(=O)c1c(C(F)F)nn(C)c1Cl` [Example 113], 2.71. Under `CN(Cc1cccnc1Cl)C(=O)c1c(C(F)F)nn(C)c1Cl` [Example 51] stands 1.87; under `Cc1cc(CN(C(=O)c2c(C(F)F)nn(C)c2Cl)C2CC2)c(C)n1-c1ccccc1` [Example 146], 3.94. The result for `Cn1nc(C(F)F)c(C(=O)N(Cc2ccco2)C2CCCCC2)c1Cl` [Example 7] reads 3.35. In the case of `CCCN(Cc1cccs1)C(=O)c1c(C(F)F)nn(C)c1Cl` [Example 29], the logP worked out at 2.90. The result for `Cn1nc(C(F)F)c(C(=O)N(Cc2cccnc2)C2CCCCCC2)c1F` [Example 16] reads 1.66; that for `Cn1nc(C(F)F)c(C(=O)NC2(c3cccs3)CCCC2)c1Cl` [Example 33], 3.13.

`CC(C)N(Cc1cnn(-c2ccc(Cl)cc2)c1)C(=O)c1c(C(F)F)nn(C)c1F` [Example 150] registered a logP of 3.25. Under `Cn1nc(C(F)F)c(C(=O)NCc2ccc(Cl)nc2)c1Cl` [Example 69] stands 1.82; under `Cn1nc(C(F)F)c(C(=O)N(Cc2ccco2)C2CCCCC2)c1F` [Example 8], 3.21. Under `Cn1ccc(C2(NC(=O)c3c(C(F)F)nn(C)c3Cl)CCCC2)n1` [Example 25] stands 1.93. Under `CCN(Cc1c(C)nn(CC)c1C)C(=O)c1c(C(F)F)nn(C)c1F` [Example 79] stands 1.72; under `Cc1ccoc1CN(C)C(=O)c1c(C(F)F)nn(C)c1F` [Example 22], 2.18. Regarding `Cn1nc(C(F)F)c(C(=O)NC2(c3ccco3)CCCC2)c1F` [Example 12], the logP is reported as 2.70.

The compound `CC(C1CC1)N(Cc1ccco1)C(=O)c1c(C(F)F)nn(C)c1F` (centres unmarked) [Example 3] returned a logP of 2.82. In turn, `Cn1nc(C(F)F)c(C(=O)N(Cc2cccnc2)CC(F)(F)F)c1Cl` [Example 13] gave a logP of 1.37. The result for `CC(C)N(Cc1ccc(Cl)nc1)C(=O)c1c(C(F)F)nn(C)c1F` [Example 65] reads 2.33; that for `COCCN(Cc1ccc(Cl)nc1)C(=O)c1c(C(F)F)nn(C)c1F` [Example 59], 2.02; that for `CCN(Cc1cnc(Cl)s1)C(=O)c1c(C(F)F)nn(C)c1F` [Example 76], 2.21. The result for `CCN(Cc1ccc(Cl)nc1)C(=O)c1c(C(F)F)nn(C)c1Cl` [Example 60] reads 2.23. For the compound `Cn1nc(C(F)F)c(C(=O)NC2(c3ccco3)CCCC2)c1Cl` [Example 11], the logP is 2.86.

As for `CCCN(Cc1cccs1)C(=O)c1c(C(F)F)nn(C)c1F` [Example 30], the logP was 2.77. The result for `Cn1ccc(C2(NC(=O)c3c(C(F)F)nn(C)c3F)CCCC2)n1` [Example 26] reads 2.25.

Compound `CN(Cc1ccc(Cl)nc1)C(=O)c1c(C(F)F)nn(C)c1F` [Example 63] came in with a logP of 1.84. Regarding `COCCN(Cc1ccc(Cl)nc1)C(=O)c1c(C(F)F)nn(C)c1Cl` [Example 58], the logP is on record as 2.15. The result for `CC(C)Oc1ccc(CN(C)C(=O)c2c(C(F)F)nn(C)c2Cl)cn1` [Example 101] reads 2.59. Under `CC(C)N(Cc1ccc(Cl)nc1)C(=O)c1c(C(F)F)nn(C)c1Cl` [Example 64] stands 2.49. The result for `Cc1nc(-c2ccccc2)sc1CN(C)C(=O)c1c(C(F)F)nn(C)c1Cl` [Example 148] reads 2.90; that for `CC(C1CC1)N(Cc1ccco1)C(=O)c1c(C(F)F)nn(C)c1Cl` (centres unmarked) [Example 2], 2.98. As for `Cn1nc(C(F)F)c(C(=O)N(Cc2ccco2)C2CC2)c1Cl` [Example 4], the logP is 2.45. Under `Cn1nc(C(F)F)c(C(=O)NCc2ccco2)c1Cl` [Example 9] stands 1.86; under `CN(Cc1ccco1)C(=O)c1c(C(F)F)nn(C)c1Cl` [Example 6], 2.02; under `CC(C)C(c1cncnc1)N(C)C(=O)c1c(C(F)F)nn(C)c1F` (centres unmarked) [Example 20], 1.65. The result for `C=CCN(Cc1csc(C)n1)C(=O)c1c(C(F)F)nn(C)c1Cl` [Example 43] reads 2.20. Turning to `CC(C)C(c1cncnc1)N(C)C(=O)c1c(C(F)F)nn(C)c1Cl` (centres unmarked) [Example 19], the logP turned out to be 1.76.

Broadly, the logP is the decadic logarithm of the partition coefficient of the neutral form, usually between octanol and water.
